What was measured:
Assay type in all cases: functional
[1] = tested on: Oculimacula yallundae; assay: Fungicidal activity against Oculimacula yallundae inoculated in 24 hr compound-treated plant foliage assessed as disease control at 40 ppm measured after 7 days
[2] = tested on: Parastagonospora nodorum; assay: Fungicidal activity against Phaeosphaeria nodorum inoculated in 24 hr compound-treated plant foliage assessed as disease control at 40 ppm measured after 7 days
[3] = tested on: Parastagonospora nodorum; assay: Fungicidal activity against Phaeosphaeria nodorum inoculated in 24 hr compound-treated plant foliage assessed as disease control at 200 ppm measured after 7 days
[4] = tested on: Oculimacula yallundae; assay: Fungicidal activity against Oculimacula yallundae inoculated in 24 hr compound-treated plant foliage assessed as disease control at 200 ppm measured after 7 days
[5] = tested on: Oculimacula yallundae; assay: Fungicidal activity against Oculimacula yallundae inoculated in 24 hr compound-treated plant foliage assessed as disease control at 20 ppm measured after 7 days
[6] = tested on: Parastagonospora nodorum; assay: Fungicidal activity against Phaeosphaeria nodorum inoculated in 24 hr compound-treated plant foliage assessed as disease control at 20 ppm measured after 7 days

| SMILES | Activity [1] [%] | Activity [2] [%] | Activity [3] [%] | Activity [4] [%] | also measured |
| --- | --- | --- | --- | --- | --- |
| O=C(Nc1c(Cl)cccc1Cl)c1c(-c2ccccc2)nc2n1CCS2(=O)=O | 9 | 23 | – | – | – |
| O=C(Nc1c(Cl)cccc1Cl)c1c(Cl)nc2n1CCS2(=O)=O | 39 | 0 | – | – | – |
| O=C(c1c(Cl)nc2n1CCS2(=O)=O)N1CCCCC1 | – | – | 23 | 0 | – |
| O=C(c1c(Cl)nc2n1CCS2(=O)=O)N1CCOCC1 | 0 | 23 | – | – | – |
| CN(C(=O)c1c(Cl)nc2n1CCS2(=O)=O)c1ccccc1 | – | – | 0 | 39 | – |
| O=C(Nc1ccccn1)c1c(Cl)nc2n1CCS2(=O)=O | – | – | 0 | 100 | – |
| CCNC(=O)c1c(Cl)nc2n1CCS2(=O)=O | 39 | 23 | – | – | – |
| Cc1nc2n(c1C(=O)Nc1c(Cl)cccc1Cl)CCS2(=O)=O | 0 | 23 | – | – | – |
| Cc1nc2n(c1C(=O)N1CCCCC1)CCS2(=O)=O | – | – | 23 | 0 | – |
| Cc1nc2n(c1C(=O)Nc1ccccn1)CCS2(=O)=O | – | – | 0 | 100 | – |
| Cc1nc2n(c1C(=O)Nc1ccccc1)CCS2(=O)=O | – | – | 23 | 54 | – |
| C[Si](Cn1cncn1)(c1ccc(F)cc1)c1ccc(F)cc1 [FLUSILAZOLE] | – | – | – | – | Activity [5]: 98%; Activity [6]: 99% |
